{"source": "paper PMC3848336", "about": "“Aurora Isoform Selectivity: Design and Synthesis of Imidazo[4,5-b]pyridine Derivatives as Highly Selective Inhibitors of Aurora-A Kinase in Cells” (Journal of Medicinal Chemistry, 2013)", "assay_in_all_cases": "Kinase selectivity profiling", "type_in_all_cases": "biochemical", "key": {"Aurora B": {"target": "Aurora B (Homo sapiens, UniProt Q96GD4)", "sequence (Q96GD4 whole entry)": "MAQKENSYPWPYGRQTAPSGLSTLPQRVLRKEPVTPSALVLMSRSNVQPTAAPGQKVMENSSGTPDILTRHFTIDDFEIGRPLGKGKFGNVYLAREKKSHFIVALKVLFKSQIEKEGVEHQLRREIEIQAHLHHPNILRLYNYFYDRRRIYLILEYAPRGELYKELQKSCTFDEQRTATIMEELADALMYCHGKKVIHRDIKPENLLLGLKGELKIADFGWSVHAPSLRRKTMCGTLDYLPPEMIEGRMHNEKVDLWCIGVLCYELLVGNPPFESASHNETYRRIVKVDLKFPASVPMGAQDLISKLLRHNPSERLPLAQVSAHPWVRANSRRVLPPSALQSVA"}, "YES1": {"target": "YES1 (Homo sapiens, UniProt P07947)", "settings": "110-kinase panel", "source_text": "(§1) Compound 28c was profiled against a panel of 110 kinases at the International Centre for Protein Kinase Profiling, Division of Signal Transduction Therapy, University of Dundee. Compound 40f was profiled against a panel of 50 kinases (MRC-PPU Express Screen) also at the International Centre for Protein Kinase Profiling."}, "PRK2": {"target": "PRK2 (Homo sapiens, UniProt Q16513)", "sequence (Q16513 whole entry, species assumed)": "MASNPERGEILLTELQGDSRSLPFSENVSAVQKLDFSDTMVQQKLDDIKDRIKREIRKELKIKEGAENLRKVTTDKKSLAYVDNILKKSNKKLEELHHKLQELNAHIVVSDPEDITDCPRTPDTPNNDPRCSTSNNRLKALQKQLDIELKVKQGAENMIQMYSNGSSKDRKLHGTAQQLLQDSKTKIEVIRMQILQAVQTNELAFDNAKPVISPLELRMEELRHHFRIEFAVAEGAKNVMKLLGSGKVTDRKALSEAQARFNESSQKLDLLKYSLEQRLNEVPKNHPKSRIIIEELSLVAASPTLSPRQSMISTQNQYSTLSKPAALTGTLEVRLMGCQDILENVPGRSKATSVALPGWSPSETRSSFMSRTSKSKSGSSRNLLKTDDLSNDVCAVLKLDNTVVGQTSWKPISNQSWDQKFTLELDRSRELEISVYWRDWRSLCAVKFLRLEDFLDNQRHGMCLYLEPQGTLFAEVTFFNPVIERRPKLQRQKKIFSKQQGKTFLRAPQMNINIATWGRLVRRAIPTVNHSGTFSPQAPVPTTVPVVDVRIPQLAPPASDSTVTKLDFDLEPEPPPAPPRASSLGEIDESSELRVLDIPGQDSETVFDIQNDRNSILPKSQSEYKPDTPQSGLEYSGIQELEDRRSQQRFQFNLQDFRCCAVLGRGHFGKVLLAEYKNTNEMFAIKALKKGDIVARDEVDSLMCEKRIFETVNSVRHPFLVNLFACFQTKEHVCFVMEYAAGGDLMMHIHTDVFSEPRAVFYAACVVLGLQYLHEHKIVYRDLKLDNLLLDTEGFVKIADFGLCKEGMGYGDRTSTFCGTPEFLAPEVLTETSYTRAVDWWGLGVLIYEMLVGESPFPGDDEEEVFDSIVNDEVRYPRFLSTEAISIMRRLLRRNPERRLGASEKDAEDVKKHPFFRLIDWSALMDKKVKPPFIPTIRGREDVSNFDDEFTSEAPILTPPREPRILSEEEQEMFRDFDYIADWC", "source_text": "as §1"}, "ERK2": {"target": "ERK2 (Homo sapiens, UniProt P28482)", "settings": "110-kinase panel", "source_text": "as §1"}, "PAK2": {"target": "PAK2 (Homo sapiens, UniProt Q13177)", "settings": "110-kinase panel", "source_text": "as §1"}, "MARK1": {"target": "MARK1 (Homo sapiens, UniProt Q9P0L2)", "settings": "110-kinase panel", "source_text": "as §1"}, "ERK1": {"target": "ERK1 (Homo sapiens, UniProt P27361)", "settings": "110-kinase panel", "source_text": "as §1"}, "MINK1": {"target": "MINK1 (Homo sapiens, UniProt Q8N4C8)", "settings": "110-kinase panel", "source_text": "as §1"}, "MARK4": {"target": "MARK4 (Homo sapiens, UniProt Q96L34)", "settings": "110-kinase panel", "source_text": "as §1"}, "IRR": {"target": "IRR (Homo sapiens, UniProt P14616)", "settings": "110-kinase panel", "source_text": "as §1"}, "JNK2": {"target": "JNK2 (Homo sapiens, UniProt P45984)", "settings": "110-kinase panel", "source_text": "as §1"}, "IKKb": {"target": "IKKb (Homo sapiens, UniProt O14920)", "settings": "110-kinase panel", "source_text": "as §1"}, "MKK2": {"target": "MKK2 (Homo sapiens, UniProt P36507)", "settings": "110-kinase panel", "source_text": "as §1"}, "DAPK1": {"target": "DAPK1 (Homo sapiens, UniProt P53355)", "settings": "110-kinase panel", "source_text": "as §1"}, "MARK2": {"target": "MARK2 (Homo sapiens, UniProt Q7KZI7)", "settings": "110-kinase panel", "source_text": "as §1"}, "TAO1": {"target": "TAO1 (Homo sapiens, UniProt Q7L7X3)", "settings": "110-kinase panel", "source_text": "as §1"}, "BRSK2": {"target": "BRSK2 (Homo sapiens, UniProt Q8IWQ3)", "settings": "110-kinase panel", "source_text": "as §1"}, "EPH-B1": {"target": "EPH-B1 (Homo sapiens, UniProt P54762)", "settings": "110-kinase panel, read-out: % activity remaining, EPH2B1", "source_text": "as §1"}, "RSK2": {"target": "RSK2 (Homo sapiens, UniProt P51812)", "settings": "110-kinase panel", "source_text": "as §1"}, "MAPKAP-K2": {"target": "MAPKAP-K2 (Homo sapiens, UniProt P49137)", "sequence (P49137 whole entry)": "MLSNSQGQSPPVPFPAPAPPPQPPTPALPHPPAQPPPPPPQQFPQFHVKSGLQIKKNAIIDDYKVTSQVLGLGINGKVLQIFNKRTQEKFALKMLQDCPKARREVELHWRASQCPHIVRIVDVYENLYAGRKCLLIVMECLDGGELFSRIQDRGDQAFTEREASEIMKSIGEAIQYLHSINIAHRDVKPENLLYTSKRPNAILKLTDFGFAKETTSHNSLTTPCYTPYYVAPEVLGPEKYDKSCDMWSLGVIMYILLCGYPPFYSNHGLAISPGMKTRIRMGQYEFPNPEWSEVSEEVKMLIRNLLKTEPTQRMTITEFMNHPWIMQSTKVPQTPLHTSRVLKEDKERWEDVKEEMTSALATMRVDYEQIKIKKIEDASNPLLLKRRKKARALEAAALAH", "settings": "110-kinase panel, read-out: % activity remaining, MAPKAP2K2", "source_text": "as §1"}, "IR": {"target": "IR (Homo sapiens, UniProt P06213)", "settings": "110-kinase panel", "source_text": "as §1"}, "HIPK1": {"target": "HIPK1 (Homo sapiens, UniProt Q86Z02)", "settings": "110-kinase panel", "source_text": "as §1"}, "p38d MAPK": {"target": "p38d MAPK (Homo sapiens, UniProt O15264)", "settings": "110-kinase panel", "source_text": "as §1"}, "p38b MAPK": {"target": "p38b MAPK (Homo sapiens, UniProt Q15759)", "settings": "110-kinase panel", "source_text": "as §1"}, "MLK3": {"target": "MLK3 (Homo sapiens, UniProt Q16584)", "sequence (Q16584 whole entry)": "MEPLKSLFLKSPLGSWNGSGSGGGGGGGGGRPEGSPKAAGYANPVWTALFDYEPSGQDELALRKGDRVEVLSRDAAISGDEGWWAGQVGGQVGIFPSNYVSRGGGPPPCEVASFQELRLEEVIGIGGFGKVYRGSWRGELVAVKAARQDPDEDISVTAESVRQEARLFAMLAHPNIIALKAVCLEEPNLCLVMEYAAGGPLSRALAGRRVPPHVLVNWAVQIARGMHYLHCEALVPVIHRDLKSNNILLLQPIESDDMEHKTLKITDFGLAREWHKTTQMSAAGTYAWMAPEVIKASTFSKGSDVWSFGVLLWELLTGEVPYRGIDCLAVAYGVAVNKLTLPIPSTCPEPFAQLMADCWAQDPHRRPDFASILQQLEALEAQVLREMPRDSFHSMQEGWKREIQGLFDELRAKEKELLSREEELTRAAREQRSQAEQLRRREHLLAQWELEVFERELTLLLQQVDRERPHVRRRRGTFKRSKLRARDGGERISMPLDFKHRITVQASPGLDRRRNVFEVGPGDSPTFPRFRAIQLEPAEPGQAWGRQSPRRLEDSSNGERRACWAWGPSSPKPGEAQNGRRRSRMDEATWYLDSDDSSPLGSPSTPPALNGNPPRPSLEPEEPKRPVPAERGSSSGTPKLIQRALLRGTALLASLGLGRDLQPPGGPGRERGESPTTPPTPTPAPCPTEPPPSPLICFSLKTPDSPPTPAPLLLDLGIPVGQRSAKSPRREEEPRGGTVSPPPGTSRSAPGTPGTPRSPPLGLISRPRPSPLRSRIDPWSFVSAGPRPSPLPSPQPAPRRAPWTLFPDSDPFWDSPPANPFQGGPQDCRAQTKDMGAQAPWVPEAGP", "source_text": "as §1"}, "MARK3": {"target": "MARK3 (Homo sapiens, UniProt P27448)", "sequence (P27448 whole entry)": "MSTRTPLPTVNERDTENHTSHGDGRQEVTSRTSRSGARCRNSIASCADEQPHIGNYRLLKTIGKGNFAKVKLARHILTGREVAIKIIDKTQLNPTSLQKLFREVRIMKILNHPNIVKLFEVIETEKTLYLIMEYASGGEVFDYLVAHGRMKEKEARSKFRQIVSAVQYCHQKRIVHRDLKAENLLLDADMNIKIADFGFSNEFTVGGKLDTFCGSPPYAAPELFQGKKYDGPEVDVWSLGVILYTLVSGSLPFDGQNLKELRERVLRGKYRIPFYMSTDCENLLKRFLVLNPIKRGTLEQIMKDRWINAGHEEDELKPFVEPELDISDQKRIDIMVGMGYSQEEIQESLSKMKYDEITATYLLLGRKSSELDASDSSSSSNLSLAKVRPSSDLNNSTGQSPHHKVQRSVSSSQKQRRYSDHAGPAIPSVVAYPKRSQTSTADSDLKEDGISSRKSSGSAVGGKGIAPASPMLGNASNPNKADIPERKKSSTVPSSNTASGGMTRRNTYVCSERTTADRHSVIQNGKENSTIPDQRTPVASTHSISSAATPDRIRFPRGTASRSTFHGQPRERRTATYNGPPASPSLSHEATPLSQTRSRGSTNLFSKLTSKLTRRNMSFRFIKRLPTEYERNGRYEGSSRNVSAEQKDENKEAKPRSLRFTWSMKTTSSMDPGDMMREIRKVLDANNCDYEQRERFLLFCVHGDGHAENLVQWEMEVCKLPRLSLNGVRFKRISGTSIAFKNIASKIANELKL", "source_text": "as §1"}, "EPH-B2": {"target": "EPH-B2 (Homo sapiens, UniProt P29323)", "settings": "110-kinase panel, read-out: % activity remaining, EPH2B2", "source_text": "as §1"}, "Src": {"target": "Src (Homo sapiens, UniProt P12931)", "sequence (P12931 whole entry)": "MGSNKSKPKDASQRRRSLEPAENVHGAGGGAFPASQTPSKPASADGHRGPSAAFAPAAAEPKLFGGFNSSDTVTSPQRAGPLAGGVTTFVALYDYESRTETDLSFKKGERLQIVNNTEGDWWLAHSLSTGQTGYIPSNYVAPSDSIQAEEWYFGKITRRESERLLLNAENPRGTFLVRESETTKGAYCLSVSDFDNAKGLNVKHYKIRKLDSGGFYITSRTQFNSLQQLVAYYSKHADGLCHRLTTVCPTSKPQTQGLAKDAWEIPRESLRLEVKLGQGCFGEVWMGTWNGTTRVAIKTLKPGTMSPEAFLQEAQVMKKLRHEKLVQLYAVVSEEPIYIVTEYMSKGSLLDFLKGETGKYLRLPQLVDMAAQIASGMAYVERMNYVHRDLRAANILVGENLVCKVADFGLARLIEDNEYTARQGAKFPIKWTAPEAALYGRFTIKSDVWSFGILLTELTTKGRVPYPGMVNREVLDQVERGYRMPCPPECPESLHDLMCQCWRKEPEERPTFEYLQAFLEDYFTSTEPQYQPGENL", "source_text": "as §1"}, "p38g MAPK": {"target": "p38g MAPK (Homo sapiens, UniProt P53778)", "settings": "110-kinase panel", "source_text": "as §1"}, "BTK": {"target": "BTK (Homo sapiens, UniProt Q06187)", "sequence (Q06187 whole entry)": "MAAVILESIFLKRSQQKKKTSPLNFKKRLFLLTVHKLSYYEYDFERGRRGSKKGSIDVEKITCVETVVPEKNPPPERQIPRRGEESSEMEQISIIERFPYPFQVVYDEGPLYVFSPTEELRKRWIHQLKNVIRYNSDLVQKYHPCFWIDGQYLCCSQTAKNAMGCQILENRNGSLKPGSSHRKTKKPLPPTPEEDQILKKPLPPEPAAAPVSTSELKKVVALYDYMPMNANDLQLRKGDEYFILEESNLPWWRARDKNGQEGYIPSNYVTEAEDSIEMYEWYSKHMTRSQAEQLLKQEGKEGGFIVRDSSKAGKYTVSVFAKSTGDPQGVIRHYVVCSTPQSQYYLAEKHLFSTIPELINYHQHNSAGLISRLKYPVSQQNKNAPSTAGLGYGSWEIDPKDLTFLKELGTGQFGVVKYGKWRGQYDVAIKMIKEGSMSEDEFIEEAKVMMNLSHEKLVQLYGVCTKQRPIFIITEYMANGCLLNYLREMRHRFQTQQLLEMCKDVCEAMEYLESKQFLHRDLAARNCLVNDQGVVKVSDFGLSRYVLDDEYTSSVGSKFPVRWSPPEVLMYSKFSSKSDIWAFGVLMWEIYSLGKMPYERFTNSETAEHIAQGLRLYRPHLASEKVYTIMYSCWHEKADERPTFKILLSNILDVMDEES", "source_text": "as §1"}, "MLK1": {"target": "MLK1 (Homo sapiens, UniProt P80192)", "settings": "110-kinase panel", "source_text": "as §1"}, "FGF-R1": {"target": "FGF-R1 (Homo sapiens, UniProt P11362)", "settings": "110-kinase panel, read-out: % activity remaining, FGF2R1", "source_text": "as §1"}, "PIM2": {"target": "PIM2 (Homo sapiens, UniProt Q9P1W9)", "settings": "110-kinase panel", "source_text": "as §1"}, "EPH-A4": {"target": "EPH-A4 (Homo sapiens, UniProt P54764)", "settings": "110-kinase panel, read-out: % activity remaining, EPH2A4", "source_text": "as §1"}, "JNK3": {"target": "JNK3 (Homo sapiens, UniProt P53779)", "settings": "110-kinase panel", "source_text": "as §1"}, "EPH-B4": {"target": "EPH-B4 (Homo sapiens, UniProt P54760)", "settings": "110-kinase panel, read-out: % activity remaining, EPH2B4", "source_text": "as §1"}, "GCK": {"target": "GCK (Homo sapiens, UniProt Q12851)", "settings": "110-kinase panel", "source_text": "as §1"}, "MST4": {"target": "MST4 (Homo sapiens, UniProt Q9P289)", "settings": "110-kinase panel", "source_text": "as §1"}, "PRAK": {"target": "PRAK (Homo sapiens, UniProt Q8IW41)", "sequence (Q8IW41 whole entry)": "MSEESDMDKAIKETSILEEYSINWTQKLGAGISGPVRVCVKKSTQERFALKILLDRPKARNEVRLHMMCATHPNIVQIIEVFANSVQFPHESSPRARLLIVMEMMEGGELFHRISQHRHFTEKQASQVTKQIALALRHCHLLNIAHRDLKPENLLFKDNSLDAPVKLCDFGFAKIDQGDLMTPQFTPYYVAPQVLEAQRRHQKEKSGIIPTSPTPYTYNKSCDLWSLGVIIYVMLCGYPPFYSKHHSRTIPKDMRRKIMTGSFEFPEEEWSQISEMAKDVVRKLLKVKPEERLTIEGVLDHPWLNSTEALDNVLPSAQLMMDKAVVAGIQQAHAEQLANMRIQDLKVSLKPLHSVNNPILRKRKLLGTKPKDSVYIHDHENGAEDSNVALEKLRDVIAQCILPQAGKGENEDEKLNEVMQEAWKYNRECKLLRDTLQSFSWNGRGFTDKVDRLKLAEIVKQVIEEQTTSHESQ", "settings": "110-kinase panel", "source_text": "as §1"}, "PAK6": {"target": "PAK6 (Homo sapiens, UniProt Q9NQU5)", "settings": "110-kinase panel", "source_text": "as §1"}, "ASK1": {"target": "ASK1 (Homo sapiens, UniProt Q99683)", "settings": "110-kinase panel", "source_text": "as §1"}, "[1]": {"settings": "50-kinase panel (MRC-PPU Express Screen)"}}, "data": [{"molecule": "Cc1nn(C)cc1-c1nc2c(Oc3ccc(C(=O)Nc4ccccc4)cc3)c(Cl)cnc2[nH]1", "note": "[compound 28c, 4-((6-Chloro-2-(1,3-dimethyl-1H-pyrazol-4-yl)-3H-imidazo[4,5-b]pyridin-7-yl)oxy)-N-phenylbenzamide]", "values": [{"measurement": "remaining activity at 1 µM", "setting": "Aurora B; 110-kinase panel", "value": 25, "unit": "%"}, {"measurement": "remaining activity at 1 µM", "setting": "YES1", "value": 111, "unit": "%"}, {"measurement": "remaining activity at 1 µM", "setting": "PRK2; 110-kinase panel", "value": 81, "unit": "%"}, {"measurement": "remaining activity at 1 µM", "setting": "ERK2", "value": 85, "unit": "%"}, {"measurement": "remaining activity at 1 µM", "setting": "PAK2", "value": 102, "unit": "%"}, {"measurement": "remaining activity at 1 µM", "setting": "MARK1", "value": 103, "unit": "%"}, {"measurement": "remaining activity at 1 µM", "setting": "ERK1", "value": 172, "unit": "%"}, {"measurement": "remaining activity at 1 µM", "setting": "MINK1", "value": 75, "unit": "%"}, {"measurement": "remaining activity at 1 µM", "setting": "MARK4", "value": 85, "unit": "%"}, {"measurement": "remaining activity at 1 µM", "setting": "IRR", "value": 108, "unit": "%"}, {"measurement": "remaining activity at 1 µM", "setting": "JNK2", "value": 90, "unit": "%"}, {"measurement": "remaining activity at 1 µM", "setting": "IKKb", "value": 99, "unit": "%"}, {"measurement": "remaining activity at 1 µM", "setting": "MKK2", "value": 94, "unit": "%"}, {"measurement": "remaining activity at 1 µM", "setting": "DAPK1", "value": 95, "unit": "%"}, {"measurement": "remaining activity at 1 µM", "setting": "MARK2", "value": 104, "unit": "%"}, {"measurement": "remaining activity at 1 µM", "setting": "TAO1", "value": 100, "unit": "%"}, {"measurement": "remaining activity at 1 µM", "setting": "BRSK2", "value": 111, "unit": "%"}, {"measurement": "remaining activity at 1 µM", "setting": "EPH-B1", "value": 127, "unit": "%"}, {"measurement": "remaining activity at 1 µM", "setting": "RSK2", "value": 94, "unit": "%"}, {"measurement": "remaining activity at 1 µM", "setting": "MAPKAP-K2", "value": 91, "unit": "%"}, {"measurement": "remaining activity at 1 µM", "setting": "IR", "value": 124, "unit": "%"}, {"measurement": "remaining activity at 1 µM", "setting": "HIPK1", "value": 102, "unit": "%"}, {"measurement": "remaining activity at 1 µM", "setting": "p38d MAPK", "value": 102, "unit": "%"}, {"measurement": "remaining activity at 1 µM", "setting": "p38b MAPK", "value": 89, "unit": "%"}, {"measurement": "remaining activity at 1 µM", "setting": "MLK3; 110-kinase panel", "value": 46, "unit": "%"}, {"measurement": "remaining activity at 1 µM", "setting": "MARK3; 110-kinase panel", "value": 83, "unit": "%"}, {"measurement": "remaining activity at 1 µM", "setting": "EPH-B2", "value": 91, "unit": "%"}, {"measurement": "remaining activity at 1 µM", "setting": "Src; 110-kinase panel", "value": 80, "unit": "%"}, {"measurement": "remaining activity at 1 µM", "setting": "p38g MAPK", "value": 96, "unit": "%"}, {"measurement": "remaining activity at 1 µM", "setting": "BTK; 110-kinase panel", "value": 110, "unit": "%"}, {"measurement": "remaining activity at 1 µM", "setting": "MLK1", "value": 31, "unit": "%"}, {"measurement": "remaining activity at 1 µM", "setting": "FGF-R1", "value": 82, "unit": "%"}, {"measurement": "remaining activity at 1 µM", "setting": "PIM2", "value": 117, "unit": "%"}, {"measurement": "remaining activity at 1 µM", "setting": "EPH-A4", "value": 112, "unit": "%"}, {"measurement": "remaining activity at 1 µM", "setting": "JNK3", "value": 87, "unit": "%"}, {"measurement": "remaining activity at 1 µM", "setting": "EPH-B4", "value": 102, "unit": "%"}, {"measurement": "remaining activity at 1 µM", "setting": "GCK", "value": 98, "unit": "%"}, {"measurement": "remaining activity at 1 µM", "setting": "MST4", "value": 115, "unit": "%"}, {"measurement": "remaining activity at 1 µM", "setting": "PRAK", "value": 103, "unit": "%"}, {"measurement": "remaining activity at 1 µM", "setting": "PAK6", "value": 101, "unit": "%"}, {"measurement": "remaining activity at 1 µM", "setting": "ASK1", "value": 119, "unit": "%"}]}, {"molecule": "Cc1nn(C)cc1-c1nc2c(Oc3ccc(C(=O)NC4CCC4)cc3)c(Cl)cnc2[nH]1", "note": "[compound 40f, 4-((6-Chloro-2-(1,3-dimethyl-1H-pyrazol-4-yl)-3H-imidazo[4,5-b]pyridin-7-yl)oxy)-N-cyclobutylbenzamide]", "values": [{"measurement": "remaining activity at 1 µM", "setting": "Aurora B; [1]", "value": 66, "unit": "%"}, {"measurement": "remaining activity at 1 µM", "setting": "PRK2; [1]", "value": 92, "unit": "%"}, {"measurement": "remaining activity at 1 µM", "setting": "MLK3; [1]", "value": 31, "unit": "%"}, {"measurement": "remaining activity at 1 µM", "setting": "MARK3; [1]", "value": 107, "unit": "%"}, {"measurement": "remaining activity at 1 µM", "setting": "Src; [1]", "value": 86, "unit": "%"}, {"measurement": "remaining activity at 1 µM", "setting": "BTK; [1]", "value": 101, "unit": "%"}]}]}
